One may read the IC50 as the concentration at which inhibition is half-maximal. A word on the melting point: it is the temperature of the solid-liquid transition.

Where only a bound is given, the exact number is not on record here.

Results on three compounds are retold here after US6589980B2, “Substituted 10,11-benzo[b]fluoren-10-ones as estrogenic agents” (Wyeth, priority 2001, dated 2003).

One data set concerns the target T1, human ERβ (Homo sapiens, UniProt Q92731).
T1 construct: made in house; host or cells: E. coli (crude lysate)
Nature of the data set: Competition with [3H]-17β-estradiol for binding to ERβ ligand binding domain. Particulars: crude E. coli lysate expressing ER ligand binding domains (D,E,&F); 2 nM [3H]-17β-estradiol; 5-15 hours at room temperature. As for the experimental part: (§1) This test procedure provides the methodology for one to determine whether a particular compound binds to the estrogen receptor (and is therefore “estrogenic”) and whether there is selectivity for ERα or ERβ. […] The procedure used is briefly described below. A crude lysate of E. coli expressing the estrogen receptor ligand binding domains (D,E, & F) of human ERα or ERβ was prepared. Both receptors and compounds were diluted in 1×Dulbecco's PBS (DPBS) supplemented with 1 mM EDTA. […] After between 5 and 15 hours at room temperature, the plates were washed with DPBS/1 mM EDTA and bound radioactivity determined by liquid scintillation counting.

Another data set has as its target T2, human ERα (Homo sapiens, UniProt P03372).
T2 construct: made in house; host or cells: E. coli (crude lysate)
T2 sequence (P03372 311-547 limits assumed): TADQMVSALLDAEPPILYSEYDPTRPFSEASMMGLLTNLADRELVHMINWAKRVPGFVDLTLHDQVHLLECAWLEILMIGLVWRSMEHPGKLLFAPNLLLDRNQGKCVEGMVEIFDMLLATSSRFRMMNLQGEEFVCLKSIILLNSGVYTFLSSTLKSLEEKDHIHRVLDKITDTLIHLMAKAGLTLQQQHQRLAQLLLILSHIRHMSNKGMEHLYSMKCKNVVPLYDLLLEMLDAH
Briefly: Competition with [3H]-17β-estradiol for binding to ERα ligand binding domain. Particulars: crude E. coli lysate expressing ER ligand binding domains (D,E,&F); 2 nM [3H]-17β-estradiol; 5-15 hours at room temperature. As for the experimental part: as §1

T1 sequence (Q92731 264-498 limits assumed): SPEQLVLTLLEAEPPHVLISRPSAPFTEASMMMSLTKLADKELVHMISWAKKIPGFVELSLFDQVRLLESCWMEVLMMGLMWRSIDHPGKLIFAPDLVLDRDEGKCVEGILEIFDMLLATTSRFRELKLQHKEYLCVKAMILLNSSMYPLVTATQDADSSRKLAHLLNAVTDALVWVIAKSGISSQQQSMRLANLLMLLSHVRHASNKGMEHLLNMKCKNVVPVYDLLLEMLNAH

Turning to `O=c1c2c(O)cc(O)cc2oc2oc3cc(O)ccc3c12` [2,6,8-Trihydroxy-10,11-dioxa-benzo[b]fluoren-5-one], on human ERβ, the IC50 amounted to 0.002 µM.

The compound `O=c1c2ccc(O)cc2oc2oc3cc(O)ccc3c12` [2,8-Dihydroxy-10,11-dioxa-benzo[b]fluoren-5-one] displayed a melting point of more than 300 °C. On human ERα, this compound registered an IC50 of 0.482 µM. Besides, the IC50 on human ERβ was 0.028 µM.

Consider `COc1cc(O)c2c(=O)c3c(oc2c1)oc1cc(O)ccc13` [2.6-Dihvdroxy-8-methoxy-10,11-dioxa-benzo[b]fluoren-5-one], for which, on human ERα, the IC50 stood at 2.73 µM.
